Experiment in all cases: NCI-60 cell line screen, 48 h
Test [1] concerns SNB-78 CNS.
For test [2], the system named is DMS 273 small cell lung.
Test [3] concerns HOP-18 NSCLC.
For test [4], the system named is LXFL 529 NSCLC.
Test [5] relates to DLD-1 colon.
For test [6], the system named is M19-MEL melanoma.

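Where inhibition never reached the appropriate level, the endpoint shown equals the highest concentration tested. Otherwise, values were interpolated linearly from a five-concentration, 48-hour dose response in 96-well plates. TGI marks complete inhibition of growth.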

On to `C=C(Br)C(C)(Br)CCC(Br)C(C)(C)Br` (stereo unspecified), for which the TGI was 70.4 µM in test [1]; 42.9 µM in test [2]; over 100 µM in test [3]; 45.2 µM in test [4]; over 100 µM in test [5]; 35.8 µM in test [6].

For the origin of these results see PubChem BioAssay (NCI).
